Substitutions are numbered along the chain they refer to. Where “and” joins values, the source holds several entries; their conditions need not be identical. Identical values can stand only once.
Legend:
[1] = test system: hind footpad (murine dermis); experiment: Footpad assay (dermal inflammation); conditions: systemic indomethacin
Experimental: (§1) Footpad Assay. 0.05 ml of PBS containing a test substance was injected intradermally into the right hind footpad of each mouse. An identical amount of diluent, not containing the test substance, was injected into the left hind footpad. At various time points, footpad thicknesses were measured with a spring loaded engineer's micrometer (Fowler Co., Biggswald, England).
(§2) At various time points, mice were sacrificed and footpad tissue was prepared for light microscopy. This tissue was used to quantify infiltrating cell types. Biopsy specimens were fixed in 10% buffered formalin for at least 48 hours and then prepared using standard techniques of paraffin embedding and staining with hematoxylin and eosin. Using an ocular grid, four cellular areas of dermis in each specimen were examined in a coded fashion at 1000× magnification and inflammatory cells were quantified. Differences between groups were assessed by Student's t test or analysis of variance, where appropriate.
(§3) For each mouse, 0.05 mg, slow release indomethacin pellets (Innovative Research, Toledo, Ohio) were implanted subcutaneously under light ether anesthesia 48 hours prior to an experiment. These pellets continuously release their contents over 14 days.

[2] = test system: Implanted tumors; experiment: Anti-tumor activity of rPF4 combined with indomethacin; assay type: in vivo, mice; conditions: s.c. tumors, indomethacin 50 μg slow release pellet; FIG. 10
Experimental: Four groups of mice were used in this experiment. In two groups of mice, slow release indomethacin pellets (50 μg) were implanted surgically under the skin of the left flank. The other two groups were not treated with indomethacin. Tumors were implanted subcutaneously in all four groups in the right flank.

[3] = test system: hind footpad (murine dermis); conditions: mouse, in vivo
Experimental: as §1, §2, §3

[4] = test system: Human umbilical vein endothelial cells (HUVEC); experiment: Endothelial cell proliferation assay; assay type: cell-based; conditions: for biological activity in the HUVEC assay: Table 4, compared with rPF4-211; for inhibition of human umbilical vein endothelial cell proliferation: FIG. 6
Experimental: Endothelial Cell Proliferation Assay. Human umbilical vein endothelial cells (HUVEC) were cultured in Medium 199 (Gibco) containing 10% (v/v) fetal bovine serum (FBS), 150 mcg/ml endothelial cell growth supplement (ECGS) and 5 units/ml heparin at 37° C. and 4-5% CO2. Every 3-4 days, the cultures were harvested by trypsin treatment, diluted, replated, and grown to confluence. Prior to the start of an experiment, the cells were centrifuged and resuspended in heparin-free media and incubated with the test substance (PF4) for 3 days under standard culture conditions. At the end of the incubation period, the cells were removed by trypsin treatment and counted with a Particle Data Elzone 180 Cell Counter. Statistical significance between means was determined by a standard Student t-test for unpaired data. […]

[5] = test system: angiogenesis on the CAM; experiment: Chicken chorioallantoic membrane (CAM) assay; assay type: in vivo; conditions: for biological activity in the CAM assay: Table 4, compared with rPF4-211
Experimental: Chicken Chorioallantoic Membrane (CAM) Assay. Fertile eggs were incubated in a stationary position for 3 days at 37° C. and 70-80% relative humidity. During this time, the embryo rose to the upper surface of the egg contents. At the beginning of the 4th day, the eggs were cracked without inversion and carefully deposited into sterile plastic petri dishes such that the embryo remained on the upper surface. The shell-free eggs were incubated for an additional 72 hours at 37° C., under an atmosphere containing 2.5-3.5% CO2 after which the growing embryos developed a recognizable CAM. Discs, made by mixing test samples with 1% (w/v) methylcellulose, were dried and placed on the CAM between major veins and approximately 0.5 cm from the embryo. Following another 48 hour incubation at 37° C. (2.5-3.5% CO2), the samples were scored for their ability to inhibit angiogenesis. Inhibition appears as an avascular zone surrounding the implant and can often include elbows formed by veins avoiding the disc and a reduced number of capillaries in the region of the implant.

[6] = test system: heparin inhibition of Factor Xa; experiment: Factor Xa assay of heparin binding (prevention of heparin inhibition); assay type: biochemical
Text: The lysine rich region of PF4 (residues 61-66) is also the domain associated with the binding of heparin by PF4. Heparin is known to play a role in modulating angiogenesis, which can also be affected by protamine, another well characterized heparin-binding protein. To assess the ability of PF4-based synthetic peptides to bind heparin, we assayed the activity of coagulation-cascade enzymes which are inhibited by heparin. The Factor Xa assay used here has previously been described in Denton et al. (1983) Biochem. J. 209:455-460.

[7] = test system: heparin inhibition of thrombin; experiment: Thrombin assay of heparin binding (prevention of heparin inhibition); assay type: biochemical; conditions: C-13: even at ten times an effective level of rPF4
[8] = test system: tumor cell growth; experiment: Tumor cell growth in vitro; assay type: cell-based
[9] = test system: B16 murine melanoma cell line; experiment: Systemic rPF4 against B16 melanoma lung metastases; assay type: in vivo; conditions: for # of Metastases (#/Mouse) / Lung Wt.: day 21, average of six mice
Experimental: Cells of a B16 murine melanoma cell line were injected intravenously into a tail vein of a mouse. Thirty seconds later, rPF4 (in saline or acetate buffer) was injected into the same mouse via a different tail vein. After 21 days, the tumor burden of the test and control animals was measured by counting, optically, lung metastases, and by weighing the lungs of the mice. Referring to Table 6, PF4 produced a dose-dependent effect, as measured by both parameters.

[10] = test system: B16-F10 melanoma tumor line; experiment: In vivo tumor growth assay, injection into the nascent tumor; parameters: species or system C57BL/6J female mice
Experimental: In vivo Tumor Growth Assay. Normal C57BL/6J female mice (6-8 weeks old) were inoculated subcutaneously with 5×10^5 log phase cells of a B16-F10 melanoma tumor line. This protocol led to progressive tumor growth resulting in large (300 mm^3) necrotic tumors after approximately 10 days, followed by death of untreated animals usually within three weeks of tumor inoculation.
To test the efficacy of rPF4 in preventing in vivo tumor growth and angiogenesis, tumor bearing animals were injected daily, directly into the nascent tumor, with either rPF4 or with buffer lacking rPF4, beginning one day after tumor inoculation. Tumor volume was measured at regular intervals with digital calipers by laboratory personnel uninformed of the specific treatment received by each subject animal.
The efficacy of rPF4-211 or rPF4-241 in preventing tumor growth and angiogenesis was tested. The inhibition of in vivo tumor growth was assayed after injection of either rPF4-211 (in 20 mM NaOAc, pH 4.0) or rPF4-241 (in 50 mM sodium phosphate, pH 6.5, 50 mM NaCl) directly into the nascent tumor, as described in the materials and methods section above.

[11] = test system: Kaposi's sarcoma; experiment: Cancers that contain malignant endothelial cells; conditions: such as Kaposi's sarcoma
[12] = test system: Human umbilical vein endothelial cells (HUVEC); experiment: Endothelial cell proliferation assay; assay type: cell-based; conditions: rPF4 50 mcg/ml, 5 u/ml heparin
[13] = heparin-deficient medium, FIG. 3
[14] = 0.375 mg rPF4 i.v. (19.7 mg/kg)

COc1ccc2c(c1)c(CC(=O)O)c(C)n2C(=O)c1ccc(Cl)cc1 [indomethacin]
effect on the inflammatory cell infiltrate induced by rPF4 [1]: partially abrogated | effect on the rPF4 pro-inflammatory response ([1]; FIG. 8): significantly blunts | growth of implanted tumors [2]: grew rapidly after day 6

cytochrome c [reference compound]
inflammatory response [3]: failed to elicit a significant inflammatory response

rPF4-231: rPF4 mutant that terminates at amino acid number 60: [PF4 AA 1-57] P L Y (EAEEDGDLQCLCVKTTSQVRPRHITSLEVIKAGPHCPTAQLIATLKNGRKICLDLQAPLY; Platelet factor 4 recombinant; UniProt P02776 32-91, looked up, fragment)
biological activity in the HUVEC assay [4]: does not exhibit significant biological activity | biological activity in the CAM assay [5]: does not exhibit significant biological activity

polylysine [reference compound]
inhibition of angiogenesis on the CAM ([5]; 6.5 nmol dosages): not to cause inhibition

protamine [reference compound]
prevention of heparin inhibition of Factor Xa [6]: approximately equimolar concentrations | prevention of heparin inhibition of thrombin [7]: approximately equimolar concentrations

rPF4: recombinant platelet factor 4 with the wild type sequence, 70 residues; residues 58-70 P L Y K K I I K K L L E S
direct inhibition of tumor cell growth in vitro [8]: did not directly inhibit tumor cell growth in vitro | inhibition of human umbilical vein endothelial cell proliferation [4]: effective at inhibiting the proliferation | concentration at which inhibition of endothelial cell growth was complete [4, 13]: 3.2 µM | lowest concentration with significant inhibition of endothelial cell growth [4, 13]: 1.3 µM | endothelial cell growth (cell count) ([4]; rPF4 50 mcg/ml, no heparin, three day incubation): 6.0 ± 0.6 | % Inhibition ([4]; rPF4 50 mcg/ml, no heparin, based on seeding of 8 × 10^4 cells/well): 100% and ~ 100% | # of Metastases (#/Mouse) [9, 14]: 112.2 #/Mouse | Lung Wt. [9, 14]: 525 mg | # of Metastases (#/Mouse) ([9]; 0.75 mg rPF4 i.v. (40.1 mg/kg)): 66.0 #/Mouse | Lung Wt. ([9]; 0.75 mg rPF4 i.v. (40.1 mg/kg)): 404 mg | # of Metastases (#/Mouse) ([9]; 1.5 mg rPF4 i.v. (84.2 mg/kg)): 54.7 #/Mouse | Lung Wt. ([9]; 1.5 mg rPF4 i.v. (84.2 mg/kg)): 357 mg | toxicity or other adverse effects ([9]; systemic dosages in excess of 5000 μg per kg of body weight): no observable toxicity or other adverse effects | prevention of heparin inhibition of Factor Xa [6]: approximately equimolar concentrations | prevention of heparin inhibition of thrombin [7]: approximately equimolar concentrations | inhibition of angiogenesis on the CAM ([5]; discs containing several concentrations, FIG. 2): inhibited angiogenesis | Pro-inflammatory response Infiltrating [3]: ++ | Pro-inflammatory response Swelling [3]: ++ | composition of the inflammatory infiltrate [3]: composed of neutrophils and to a lesser degree mononuclear cells | onset of acute inflammation [3]: within two hours | time until inhibition of tumor growth was apparent ([10]; after the initial inoculation of rPF4): apparent within three days | tumor growth on continued treatment ([10]; daily injection into the tumor): completely suppressed tumor growth | tumor status ([10]; within seven days of tumor inoculation, daily injection into the tumor, FIG. 7): essentially tumor-free | growth of implanted tumors [2]: grew very little, if at all | effect on cancers that contain malignant endothelial cells [11]: inhibitory | endothelial cell growth (cell count) ([12]; three day incubation): 14.0 ± 0.4 | % Inhibition ([12]; based on seeding of 8 × 10^4 cells/well): 45%

C-41: 41 amino acid C-terminal peptide of PF4 (IKAGPHCPTAQLIATLKNGRKICLDLQAPLYKKIIKKLLES; Platelet factor 4; UniProt P02776 61-101, looked up, fragment)
prevention of heparin inhibition of Factor Xa [6]: prevented heparin inhibition less effectively | prevention of heparin inhibition of thrombin [7]: prevented heparin inhibition less effectively | Pro-inflammatory response Infiltrating [3]: ++ | Pro-inflammatory response Swelling [3]: ++ | composition of the inflammatory infiltrate [3]: composed of neutrophils and to a lesser degree mononuclear cells | inflammatory response [3]: pro-inflammatory

B1: rPF4-241: PF4 mutant, four lysine residues near the C-terminus changed to two Gln-Glu couplets: P L Y Q E I I Q E L L E S (protein, UniProt P02776 32-101, looked up, variant K61Q K62E K65Q K66E)
Platelet factor 4: EAEEDGDLQCLCVKTTSQVRPRHITSLEVIKAGPHCPTAQLIATLKNGRKICLDLQAPLYQEIIQELLES
modifications: Platelet factor 4 recombinant
notes: PF4 mutant, four lysine residues near the C-terminus changed to two Gln-Glu couplets: P L Y Q E I I Q E L L E S
inhibition of human umbilical vein endothelial cell proliferation [4]: effective at inhibiting the proliferation | biological activity in the HUVEC assay [4]: enhanced activity | heparin-binding activity ([6]; Factor Xa inhibition assay): lacked heparin-binding activity | inhibition of angiogenesis in the CAM system ([5]; 1.25 nmol/disc, lowest concentration tested, FIG. 5): extensively inhibited angiogenesis | reversal of the inhibitory effect by heparin ([5]; CAM): not reversed by heparin | biological activity in the CAM assay [5]: enhanced activity | inhibition of angiogenesis compared with native rPF4 ([5]; equal concentrations, larger avascular zones): even more effective | Pro-inflammatory response Infiltrating [3]: + | Pro-inflammatory response Swelling [3]: + | tumor growth on continued treatment ([10]; daily injection into the tumor): same effect was observed

B2: rPF4-302: rPF4 mutant, C-terminal sequence P L Y Q Q I I Q Q L L E S (protein, UniProt P02776 32-101, looked up, variant K61Q K62Q K65Q K66Q)
Platelet factor 4: B1 Platelet factor 4 with E62Q, E66Q
modifications: Platelet factor 4 recombinant
biological activity in the HUVEC assay [4]: does not exhibit significant activity | biological activity in the CAM assay [5]: does not exhibit significant activity

B3: rPF4-307: rPF4 mutant, C-terminal sequence P L Y Q I E I Q L E L E S (protein, UniProt P02776 32-101, looked up, variant K61Q K62I I63E I64I K65Q K66L L67E L68L)
Platelet factor 4: B1 Platelet factor 4 with E62I, I63E, E66L, L67E
modifications: Platelet factor 4 recombinant
biological activity in the HUVEC assay [4]: enhanced activity | biological activity in the CAM assay [5]: enhanced activity

Reference: patent US5800820A, “Methods and compositions for treatment of angiogenic diseases” (Repligen Corporation, priority 1995, dated 1998)
